# From patent publication US20060106014A1, “Methods for treating diabetes” (priority 2004, published 2006)
# Read-outs that look alike come from different tables or passages of the source.
# How the values were obtained:
# [1] = system: NIDDM male mice (C57BLKS/J-m+/+Lepr db); test: Therapeutic study: serum glucose levels in diabetic animals; format: in vivo; settings: i.p. twice daily
# Experimental: In vivo evaluation of the role of dual inhibitor of both 5-LO and 12/15-LO enzymes in the reduction of serum glucose levels and insulin was performed in C57BLKs/J-m+/+Lepr db mice, a non-insulin dependent diabetic mellitus (NIDDM) model, as described in Examples. […] […].
# Non-insulin dependent diabetic mellitus (NIDDM) male mice (C57BLKS/J-m+/+Lepr db), weighing 45±5 g (10 weeks of age) and provided by Institute for Animal Reproduction (IAR, Japan), were used.
# Groups of 10 non-insulin dependent diabetic mellitus (NIDDM) male mice (C57BLKS/J-m+/+Lepr db), weighing 45±5 g and 10-weeks-old, were used. The animals were housed in Individually Ventilated Cages Racks (IVC Racks) throughout the experiment; all animals were allowed free access to sterilized Lab chow and sterilized distilled water. The test compounds, as well as vehicle (0.5% DMSO/2% Tween 80/0.9% NaCl), were each administered intraperitoneally twice daily (1st at 9:00 A.M. and 2nd at 16:00 P.M.) for a total of 14 consecutive days. Using blood samples collected from the orbital sinus, pre-treatment serum glucose and insulin levels were determined 24 hours prior to the first dosing on day 0. Post-treatment glucose and insulin levels were detected 4 hours after dosing on days 11 and 14. Also, serum glucose and insulin levels were obtained before and 15, 30 and 90 minutes after glucose loading (orally glucose tolerance test (OGTT) 2 g/kg), 4 hours following the dosing on day 11. Serum glucose and Insulin (on days 0, 11 and 14) levels were determined by enzymatic (Mutaratase-GOD) and ELISA (mouse insulin assay kit) methods, respectively. The percentage of post-treatment relative to pre-treatment group values obtained on days 11 and 14 were analyzed using One Way ANOVA followed by Dunnett's test for comparison between vehicle and treated groups. […]
# For effect on OGTT, AUC (area under the curve) for the serum glucose at times 0, 15, 30, and 90 minutes after OGTT was plotted for each test compound and its respective vehicle control. […] Body weight and food intake were measured daily through the course of the study.
# [2] = biological target: T1, porcine leukocyte 12/15-lipoxygenase (Sus scrofa, UniProt P16469); test: 12/15-Lipoxygenase Enzyme Assay (colorimetric, ferric oxidation of xylenol orange); format: biochemical
# T1 construct: purchased Cayman 60300
# T1 sequence (P16469 1-663): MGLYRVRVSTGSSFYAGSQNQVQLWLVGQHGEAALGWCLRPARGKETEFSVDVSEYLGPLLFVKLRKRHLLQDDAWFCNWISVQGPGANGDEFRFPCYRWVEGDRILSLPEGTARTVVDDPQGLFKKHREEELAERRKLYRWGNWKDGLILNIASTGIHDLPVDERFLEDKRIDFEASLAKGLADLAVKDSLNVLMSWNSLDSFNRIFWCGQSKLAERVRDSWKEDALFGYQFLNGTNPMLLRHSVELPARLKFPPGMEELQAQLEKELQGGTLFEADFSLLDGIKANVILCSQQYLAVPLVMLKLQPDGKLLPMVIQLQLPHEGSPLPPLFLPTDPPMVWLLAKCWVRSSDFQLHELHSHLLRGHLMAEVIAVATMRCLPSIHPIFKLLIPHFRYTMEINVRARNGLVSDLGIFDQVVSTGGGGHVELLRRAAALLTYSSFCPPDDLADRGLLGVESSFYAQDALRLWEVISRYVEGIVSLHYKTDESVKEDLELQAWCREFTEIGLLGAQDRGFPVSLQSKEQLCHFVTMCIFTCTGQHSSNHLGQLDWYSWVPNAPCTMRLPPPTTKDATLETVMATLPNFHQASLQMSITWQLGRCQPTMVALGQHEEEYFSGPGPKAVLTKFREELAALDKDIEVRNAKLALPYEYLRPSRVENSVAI
# Experimental: This procedure was used for measuring the enzymatic activity of porcine leukocyte 12/15-lipoxygenase using a colorimetric method based on the ferric oxidation of xylenol orange.
# (§1) The test compound and/or vehicle were added to 1.3 μL 12/15-lipoxygenase in 50 mM Tris-HCl buffer, pH 7.4. The reaction was initiated by addition of 70 μM arachidonic acid in Tris-HCl buffer, pH 7.4, and terminated after a 10 minute incubation at room temperature by addition of FOX reagent (25 mM sulphuric acid, 100 μM xylenol orange, 100 μM iron (II) sulphate, methanol:water 9:1). The yellow color of acidified xylenol orange was converted to a blue color by the lipid hydroperoxide-mediated oxidation of Fe^2+ ions and the interaction of the resulting Fe^3+ ions with the dye. The complex was allowed to form during a 1 hour incubation at room temperature with shaking. Absorbance of the Fe^3+ complex was then measured at 620 nm using a spectrophotometer.
# Negative controls contained enzyme during the incubation step but substrate was not added until after the FOX reagent.
# [3] = biological target: T2, 5-lipoxygenase (Homo sapiens, UniProt P09917); test: 5-Lipoxygenase Enzyme Assay (colorimetric, ferric oxidation of xylenol orange); format: biochemical; design: purchased Cayman 60402
# T2 sequence (P09917 1-674): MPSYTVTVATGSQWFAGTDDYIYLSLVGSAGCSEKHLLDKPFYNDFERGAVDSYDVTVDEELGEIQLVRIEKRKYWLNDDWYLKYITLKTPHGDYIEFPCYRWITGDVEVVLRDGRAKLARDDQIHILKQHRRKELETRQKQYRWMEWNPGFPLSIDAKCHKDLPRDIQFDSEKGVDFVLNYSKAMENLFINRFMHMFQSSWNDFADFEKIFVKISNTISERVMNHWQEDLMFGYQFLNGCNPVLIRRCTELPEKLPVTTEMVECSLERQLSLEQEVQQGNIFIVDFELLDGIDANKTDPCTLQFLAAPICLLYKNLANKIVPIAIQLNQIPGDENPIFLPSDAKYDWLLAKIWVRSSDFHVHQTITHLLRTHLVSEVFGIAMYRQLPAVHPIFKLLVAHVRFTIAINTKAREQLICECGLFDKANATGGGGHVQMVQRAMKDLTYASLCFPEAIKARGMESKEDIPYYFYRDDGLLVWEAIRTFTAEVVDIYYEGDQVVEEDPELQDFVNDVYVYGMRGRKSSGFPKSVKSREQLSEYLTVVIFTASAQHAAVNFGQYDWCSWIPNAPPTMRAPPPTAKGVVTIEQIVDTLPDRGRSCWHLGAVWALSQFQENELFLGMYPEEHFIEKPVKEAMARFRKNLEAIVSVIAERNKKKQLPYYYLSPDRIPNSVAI
# Experimental: This procedure was used for measuring the enzymatic activity of human recombinant 5-lipoxygenase using a colorimetric method based on the ferric oxidation of xylenol orange.
# as §1, with “was” for “were”, “0.5” for “1.3”, “5-lipoxygenase” for “12/15-lipoxygenase”, “spectrophotometer. Negative controls contained enzyme during the incubation step but substrate was not added until after the FOX reagent.” for “spectrophotometer.”
# [4] = biological target: T2, 5-lipoxygenase; settings: background; cited from earlier work
# [5] = read-out: classification as dual inhibitor: 12/15-LO enzyme assay IC50
# [6] = read-out: classification as dual inhibitor: 5-LO enzyme assay IC50
"IC50 [2, 5]","IC50 [3, 6]",Compound,5-lipoxygenase inhibition / specificity as reported in the literature [4],other results
< 5 µM,< 5 µM,"Cc1c(O)c(C)c2c(c1F)OC(C)(C)CC2 [Compound D, 8-fluoro-2,2,5,7-tetramethylchroman-6-ol]",,reduction in baseline elevated blood glucose level in comparison to the vehicle group [1]: 13%; IC50 ([2]; read-out: in vitro IC50 value in a 12/15-LO enzyme assay): < 5 µM; IC50 ([3]; read-out: in vitro IC50 value in a 5-LO enzyme assay): < 5 µM
< 5 µM,< 5 µM,"Cc1c(O)cc2c(c1C)N(c1ccc(O)cc1)C(C)CC2 (centres unmarked) [Compound E, 1-(4-hydroxyphenyl)-2,7,8-trimethyl-1,2,3,4-tetrahydroquinolin-6-ol]",,"lowering of serum glucose levels compared to respective control (FIG. 2) ([1]; 15 mg/kg, p<0.05): significant lowering"
,,"CC(Cc1ccc(O)c(O)c1)C(C)Cc1ccc(O)c(O)c1 (centres unmarked) [Compound A, Nordihydroguaiaretic acid (NDGA)]",inhibitor,
,,"CC(c1cc2ccccc2s1)N(O)C(N)=O (centres unmarked) [C, Zileuton, reference compound]",specific,"reduction in serum glucose relative to the respective vehicle control group (FIG. 2) ([1]; 30 mg/kg, p<0.01): reduction in serum glucose"
